In assay [1] the target is Thymidylate synthase (Homo sapiens, UniProt P04818). Nature of the assay: Compound was evaluated for the ability to inhibit thymidylate synthase from Manca cells. It is filed as cell-based.
Assay [2] has as its target T1, Thymidylate synthase (Lactobacillus casei, UniProt P00469).
T1 sequence (P00469 whole entry): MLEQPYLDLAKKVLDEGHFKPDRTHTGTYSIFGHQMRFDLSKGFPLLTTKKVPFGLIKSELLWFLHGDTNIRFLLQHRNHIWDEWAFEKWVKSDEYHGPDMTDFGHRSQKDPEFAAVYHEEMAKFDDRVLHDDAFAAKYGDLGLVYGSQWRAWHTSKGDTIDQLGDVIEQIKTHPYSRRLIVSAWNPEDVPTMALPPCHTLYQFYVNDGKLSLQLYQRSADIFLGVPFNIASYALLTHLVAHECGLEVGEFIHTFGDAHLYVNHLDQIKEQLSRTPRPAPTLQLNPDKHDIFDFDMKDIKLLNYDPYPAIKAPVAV
Briefly: Compound was evaluated for the ability to inhibit thymidylate synthase from Lactobacillus casei cells. On the set-up: species or system Lacticaseibacillus casei.

Assay [3] concerns the target T2, Trifunctional purine biosynthetic protein adenosine-3 (Homo sapiens, UniProt P22102).
T2 sequence (P22102 whole entry): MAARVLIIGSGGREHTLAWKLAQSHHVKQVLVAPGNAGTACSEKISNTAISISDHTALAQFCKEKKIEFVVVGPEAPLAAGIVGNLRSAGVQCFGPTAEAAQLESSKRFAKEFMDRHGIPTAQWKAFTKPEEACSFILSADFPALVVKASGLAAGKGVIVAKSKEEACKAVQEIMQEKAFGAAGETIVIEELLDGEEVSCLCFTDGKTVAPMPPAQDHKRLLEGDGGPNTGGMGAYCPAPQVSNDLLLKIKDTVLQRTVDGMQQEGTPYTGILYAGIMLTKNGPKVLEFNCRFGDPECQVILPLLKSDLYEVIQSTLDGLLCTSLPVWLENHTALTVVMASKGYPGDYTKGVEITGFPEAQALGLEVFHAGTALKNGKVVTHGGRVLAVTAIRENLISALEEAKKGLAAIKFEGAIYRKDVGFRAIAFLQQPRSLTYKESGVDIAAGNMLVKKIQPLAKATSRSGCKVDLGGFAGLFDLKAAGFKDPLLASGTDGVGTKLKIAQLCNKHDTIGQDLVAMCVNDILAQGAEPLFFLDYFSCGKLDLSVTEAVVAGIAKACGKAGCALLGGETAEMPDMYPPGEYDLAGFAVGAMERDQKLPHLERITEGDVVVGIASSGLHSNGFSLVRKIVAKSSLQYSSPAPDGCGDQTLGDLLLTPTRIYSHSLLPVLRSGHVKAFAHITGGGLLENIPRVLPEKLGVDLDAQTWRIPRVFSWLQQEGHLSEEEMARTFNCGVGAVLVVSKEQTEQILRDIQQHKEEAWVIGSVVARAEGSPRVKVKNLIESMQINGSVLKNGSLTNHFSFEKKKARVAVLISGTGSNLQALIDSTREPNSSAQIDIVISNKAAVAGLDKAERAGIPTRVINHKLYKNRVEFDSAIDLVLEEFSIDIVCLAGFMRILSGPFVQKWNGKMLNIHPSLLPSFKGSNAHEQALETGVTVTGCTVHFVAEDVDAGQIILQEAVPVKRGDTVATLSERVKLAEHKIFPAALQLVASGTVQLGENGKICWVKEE
Nature of the assay: Compound was evaluated for the ability to inhibit Glycinamide ribonucleotide formyltransferase from Manca cells. It is filed as cell-based.

A further assay deals with Manca. Briefly: Compound was evaluated for the ability to inhibit growth of Manca human lymphoma cells. Type of assay: functional, cell-based.

The values below come from ChEMBL document CHEMBL1125240, “Synthesis and biological activity of 5,11-methylenetetrahydro-5- deazahomofolic acid” (J Med Chem, 1991).

Sequence of Thymidylate synthase (Homo sapiens, UniProt P04818) (P04818 whole entry): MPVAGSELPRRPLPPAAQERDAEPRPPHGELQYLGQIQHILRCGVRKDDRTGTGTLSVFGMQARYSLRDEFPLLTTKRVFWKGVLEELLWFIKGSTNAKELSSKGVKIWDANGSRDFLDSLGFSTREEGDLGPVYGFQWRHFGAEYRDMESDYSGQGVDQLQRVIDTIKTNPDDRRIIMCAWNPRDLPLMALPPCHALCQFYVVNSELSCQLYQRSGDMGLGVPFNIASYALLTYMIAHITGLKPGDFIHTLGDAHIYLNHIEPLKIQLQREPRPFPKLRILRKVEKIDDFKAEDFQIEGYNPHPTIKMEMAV

Regarding `Nc1nc2c(c(=O)[nH]1)C1CN(c3ccc(C(=O)NC(CCC(=O)O)C(=O)O)cc3)CCC1CN2` (centres undefined), the IC50 was over 200 µM on Thymidylate synthase [1], over 100 µM against Thymidylate synthase [2], over 20 µM in assay [3] and over 14 µM with Manca.

A word on the IC50: it is the concentration that gives 50% inhibition.
